Reference: patent EP4667007A2, “NOVEL ASSOCIATION OF GASTRODIA ELATA AND VITAMIN B” (Futura S.r.l., priority 2024, dated 2025)
Read-outs that look alike come from different tables or passages of the source.

Assays:
Caco-2 cells [1] = test: In vitro intestinal barrier model, absorption with fluorescent tracer (Transwell)
Caco-2 cells [2] = settings: human
neuregulin 1 (NRG1) = test: 3D EngNT under PNI conditions, NRG1 ELISA; type: cell-based, rat; settings: GGF 200 ng/mL, result in words
Protocol: To replicate a strong demyelination before stimulation with the two formulations and the single drugs, the 3D EngNT was pre-treated with 200 ng/mL glial growth factor 2 (GGF) starting on day 14 of maturation. This was necessary since the study needed to replicate the peripheral nerve tissue damage in vitro. Therefore, further studies were conducted to investigate the effects on cell viability and ROS production (Figures 5A-B). […] In contrast, both the individual components and formulations were able not only to re-establish physiological conditions, but also to induce a significant increase in cell viability and a decrease in ROS production (p<0.05). […]
This study was carried out in three different phases; the starting point of the study protocol was intended to study the absorption and transport processes of the novel formulation and individual components through the intestinal barrier using a 3D in vitro model with Caco-2 cells. […] Finally, in the third phase, peripheral nerve damage and demyelination were simulated in vitro, treating 3D EngNT with GGF 200ng/ml, to explore cell survival and mitochondrial activity, oxidative stress and ROS quantification, the inflammatory processes involved in neuropathy, nociceptive pathways for pain control, and the main pathways involved in the processes of myelin sheath protection and neurite formation. […]

Absorption Rate (Caco-2 cells [2]; 3 h) [%]	Absorption Rate (Caco-2 cells [2]; 4 h) [%]	Absorption Rate (Caco-2 cells [2]; 5 h) [%]	Absorption Rate (Caco-2 cells [2]; 6 h) [%]	Compound	Absorption Rate (Caco-2 cells [1]; 2h, Gastrodin 25µM, Citicoline 250mM, Acetyl-L-Carnitine 7.5µM, Vit. B group 1mg/mL, Lipoic Acid 50µM) [%]	Absorption Rate (Caco-2 cells [1]; 3h, same concentrations) [%]	Absorption Rate (Caco-2 cells [1]; 4h, same concentrations) [%]	Absorption Rate (Caco-2 cells [1]; 5h, same concentrations) [%]	Absorption Rate (Caco-2 cells [1]; 6h, same concentrations) [%]	NRG1 activity (neuregulin 1 (NRG1))
–	–	–	–	CC(=O)O[C@H](CC(=O)[O-])C[N+](C)(C)C [Acetyl-L-Carnitine, (R)-3-acetyloxy-4-trimethylammonium-butanoate]	69.49	77.35	80.65	69.90	54.16	–
49.27	53.77	51.71	41.36	O=C(O)CCCCC1CCSS1 (stereo not shown) [Lipoic acid]	–	–	–	–	–	not able to improve it compared to GGF 200ng/mL
